This assay has as its system aggressive fungi. Nature of the assay: Empirical trials of Minimum Inhibitory Concentration levels that suppress aggressive fungi without restricting Stachybotrys. The format is cell-based. The conditions noted are these: added to PDA base media. How it is done: In order to be successful in culturing Stachybotrys from environmental samples, Aspergillus flavus, Aspergillus fumigatus, Aspergillus vervicolor, Cladosporium species, Penicillium species, in addition to other fungi and bacteria, need to be suppressed. While conceptually simple, the difficulty is to determine which base media, in combination with which one or more antibiotics, at what concentrations, incubated at what temperature regimes, for how long, would achieve inhibition of competitors—without restricting Stachybotrys. Extensive experimental trials empirically determined the Minimum Inhibitory Concentration (MIC) levels of various compounds that would effectively suppress aggressive fungi without restricting Stachybotrys development. Through this empirical effort there has been developed a proprietary formula for a selective agar (PDA+) based on commercially available base media and additional ingredients for the specific recovery of Stachybotrys chartarum.
(2) Miconazole (antifungal compound added to base media at 1.6 micrograms (μg) per milliliter (ml) of PDA+, the optimum concentration within the functional range of 1.0 to 3.2 μg/ml).

For the molecule `Clc1ccc(COC(Cn2ccnc2)c2ccc(Cl)cc2Cl)c(Cl)c1` (stereo not shown) [Miconazole], the “optimum concentration in PDA+” value was 1.6 micrograms (μg) per milliliter (ml).

For the origin of these results see US20020058299A1, “Mycologic genera specific selective agar and method of manufacture” (priority 2000, published 2002).
